# Measurements as given in patent EP4813979A1, “COMPOUND FOR EGFR PROTEIN DEGRADATION AND USE THEREOF” (TYK Medicines, Inc., priority 2023, dated 2025).
# What was measured:
# [1] = test system: HCC827; experiment: Cell anti-proliferation experiment (CTG); type: cell-based; details: Homo sapiens, HCC827, 72 h, HCC827 (exon 19 deletion)
# Source text: (§1) H1975 has an EGFR: T790M/L858R double mutation, PC-9 has an EGFR exon 19 deletion, and HCC827 has an exon 19 deletion mutation. Baf3-19del- T790M -C797S (Baf3-DTC) is a stable Ba/F3 clone expressing exogenous EGFR gene bearing T790M, C797S, and […] triple amino acid mutations, purchased from KYinno. Baf3-L858R-T790M - C797S (Baf3-LTC) is a stable Ba/F3 clone expressing exogenous EGFR gene bearing […], T790M, and C797S triple mutations, purchased from KYinno. A549 is a wild-type EGFR, purchased from Nanjing Kebai Biotechnology. A431 is a wild-type EGFR, purchased from Shanghai Xinyu Biotechnology. CellCounting-Lite2.0, Trypsin EDTA, 37°C CO2 incubator, cell counter, EnVision Serial No. 1050454.
# (§2) • A) Digested logarithmic phase cells with Trypsin EDTA, added culture medium to stop the reaction, and mixing well with a pipette to prepare a cell suspension. • B) Used Vi-cell to determine cell concentration, and prepared a suspension of 15,000-25,000 cells per milliliter according to the experimental purpose and cell characteristics. • C) After prepared the cell suspension, mixed it gently and added 100 µL to each well, so that the cell density to be tested is 1500-2500 per well.
# (§3) • A) Weighed approximately 2 mg the compound and calculated the required volume of DMSO according to the formula: Compound mass (mg) * Compound purity (%) / Compound molecular weight * 1000. • B) Placed the inoculated cell culture plate into an incubator and incubated for about 24 hours. Then added compounds of varying concentrations. • C) Diluted the 10mM compound stock solution to […] with culture medium, and added the […] compound solution to the second column of the deep well plate in sequence, and added […] culture medium containing 0.5% DMSO to the third to eleventh columns. • D) Gradient dilution: Taked 125 µL solution from the second column and added it to the third column, mix well; then taked 125 µL solution from the third column and added it to the fourth column, repeated this operation until the tenth column. • E) Used a multichannel pipette, aspirated 25 µL the compound from the deep-well plate and added it to a 96-well culture plate. Repeated this process three times for each compound on the 96-well plate. This will ultimately create a concentration gradient of up to 10,000 nM at a 1:4 ratio on the 96-well plate.
# (§4) • A) The effects of the compound were observed under an inverted microscope after the 96-well plate was incubated in an incubator for 72 hours. • B) Added 25 µL CTG solution to each well, placed on a shaker for 10 minutes, and read the […] of each well.
# (§5) Calculate the % Cell Viability using the following formula: %Cell Viability = 100% × (Lum_Sample−Lum_LC)/(Lum_HC−Lum_LC) [formula] • Lum_HC: Cell readings from the 0.1% DMSO control group • Lum_Sample: Cell readings with added compound • Lum_LC: Blank culture medium reading
# (§6) The IC50 value was obtained by curve fitting using GraphPad Prism 8 software.
# [2] = test system: Baf3-L858R-T790M - C797S (Baf3-LTC); experiment: Cell anti-proliferation experiment (CTG); type: cell-based; details: 72 h
# Source text: as §1, §2, §3, §4, §5, §6
# [3] = test system: Baf3-19del- T790M -C797S (Baf3-DTC); experiment: Cell anti-proliferation experiment (CTG); type: cell-based; details: 72 h
# Source text: as §1, §2, §3, §4, §5, §6
# [4] = test system: H1975; experiment: Cell anti-proliferation experiment (CTG); type: cell-based; details: Homo sapiens, NCI-H1975, 72 h, H1975 (EGFR T790M/L858R)
# Source text: as §1, §2, §3, §4, §5, §6
# [5] = test system: A549; experiment: Cell anti-proliferation experiment (CTG); type: cell-based; details: Homo sapiens, A549, 72 h, A549 (wild-type EGFR)
# Source text: as §1, §2, §3, §4, §5, §6
# [6] = test system: PC-9; experiment: Cell anti-proliferation experiment (CTG); type: cell-based; details: Homo sapiens, PC-9, 72 h, PC-9 (EGFR exon 19 deletion)
# Source text: as §1, §2, §3, §4, §5, §6
# [7] = test system: A431; experiment: Cell anti-proliferation experiment (CTG); type: cell-based; details: Homo sapiens, A-431, 72 h, A431 (wild-type EGFR)
# Source text: as §1, §2, §3, §4, §5, §6
# [8] = Pharmacokinetic tests in male SD rats; type: in vivo; details: oral gavage (po), 10 mg/kg, plasma
# Description: Three healthy adult male SD rats, 6-8 weeks old, weighing 200-300 grams.
# EDTA-Na2 anticoagulant, weighed 11.2 g EDTA-Na2 and placed it in a reagent bottle. Added 100 mL physiological saline and shaked to dissolve completely. After preparation, dispensed into 1.5 mL centrifuge tubes, each containing approximately 20 µL, for whole blood sample collection.
# Accurately weighed approximately 10 mg the sample to be tested, added 10% of the converted total volume of DMSO to dissolve it, and then slowly added 90% of the total volume of 0.5% MC solvent while stirring. Sonicated and vortex to mix thoroughly to obtain a solution of the preparation that is considered to be homogeneous, with a concentration of 1 mg/mL. Prepared fresh immediately before use.
# Piped 0.2 mL the sample into a 1.5 mL centrifuge tube and store at -80°C for analysis of the concentration of the drug solution.
# Animals were housed in rat cages and fasted for at least 10 hours starting the day before the experiment, but water was allowed. On the day of the experiment, each animal was weighed and marked on its tail. Blank blood samples were collected before drug administration. Blood was collected via tail vein.
# • Route of administration: Oral gavage (po); • Dosage concentration: 1 mg/ml; • Dosage: 10 mg/kg; • Dosage volume: 10 mL/kg; • Procedure: Hold the rat upright with your left hand wearing a bite-proof glove, insert the gavage needle into the throat through the mouth, and insert the needle when feeling no obvious resistance. Then inject the drug into the stomach.
# Whole blood (0.1-0.2 ml) was collected from test animals at 0.5 h, 1 h, 2 h, 4 h, 6 h, 8 h, 12 h, and 24 h after drug administration. The samples were placed in EDTA-Na 2 anticoagulant tubes, inverted 3-4 times to mix, and centrifuged at 4°C, 2000 g for 5 min to separate the supernatant plasma. The plasma was promptly transferred to -80°C for storage until analysis. Blood was collected via tail vein.
# A quantitative detection method for the analyte was established using Shimadzu liquid chromatography and Triple Quad™ 6500+AB mass spectrometry. The concentration of the parent drug in plasma was analyzed. The analytical results were controlled for variation using quality control samples, with the accuracy of the quality control samples expected to be between 80% and 120%.
# The main pharmacokinetic parameters were calculated using a non-compartmental model in Winnonlin Phoenix software. These parameters included the area under the curve (AUC(0-t) and AUC(0-∞)), elimination half-life (T1/2), maximum plasma concentration (Cmax ), and time to reach maximum plasma concentration (Tmax).The results are shown in Table 3.
SMILES,IC50 ([1]; class symbol) [nM],IC50 ([2]; class symbol) [nM],IC50 ([3]; class symbol) [nM],IC50 ([4]; class symbol) [nM],IC50 ([5]; class symbol) [nM],IC50 ([6]; class symbol) [nM],IC50 ([7]; class symbol) [nM],IC50 ([1]; number after the class symbol) [nM],IC50 ([2]; number after the class symbol) [nM],IC50 ([3]; number after the class symbol) [nM],IC50 ([4]; number after the class symbol) [nM],IC50 ([5]; number after the class symbol) [nM],IC50 ([6]; number after the class symbol) [nM],IC50 ([7]; number after the class symbol) [nM],HL [8] [h],AUC(0-inf) ([8]; rat) [ng·h/mL],AUC(0-t) ([8]; rat) [ng·h/mL],Cmax ([8]; rat) [ng/mL],MRT last ([8]; rat) [h],Tmax ([8]; rat) [h]
CCc1cc(Nc2ncc(Br)c(Nc3ccccc3P3(=O)CCCC3)n2)c(OC)cc1N1CC2(CCN(C(=O)CN3CCC(c4cc5c(cc4F)c(N4CCC(=O)NC4=O)nn5C)CC3)CC2)C1 [TB-008],10 to 100,10 to 100,10 to 100,10 to 100,100 to 1000,100 to 1000,100 to 1000,–,–,–,–,–,–,–,–,–,–,–,–,–
CCc1cc(Nc2ncc(Cl)c(Nc3ccccc3P3(=O)CCCC3)n2)c(OC)cc1N1CC2(CCN(C(=O)CN3CCC(c4cc5c(cc4F)c(N4CCC(=O)NC4=O)nn5C)C(F)(F)C3)CC2)C1 (centres unmarked) [TB-005],100 to 1000,10 to 100,10 to 100,10 to 100,> 1000,> 1000,> 1000,–,–,–,–,–,–,–,–,–,–,–,–,–
CCc1cc(Nc2ncc(Br)c(Nc3ccccc3P(C)(C)=O)n2)c(OC)cc1N1CCC2(CC1)CN(C(=O)CN1CCC(c3cc4c(cc3F)c(N3CCC(=O)NC3=O)nn4C)C(F)(F)C1)C2 (centres unmarked) [TC-226],100 to 1000,< 10,< 10,100 to 1000,100 to 1000,100 to 1000,> 1000,–,–,–,–,–,–,–,–,–,–,–,–,–
CCc1cc(Nc2ncc(Cl)c(Nc3ccccc3P(C)(C)=O)n2)c(OCC(F)(F)F)nc1N1CCN(C(=O)CN2CCC(c3cc4c(cc3F)c(N3CCC(=O)NC3=O)nn4C)C(F)(F)C2)CC1 (centres unmarked) [TC-127],100 to 1000,10 to 100,10 to 100,100 to 1000,> 1000,> 1000,> 1000,–,–,–,–,–,–,–,–,–,–,–,–,–
CCc1cc(Nc2ncc(Cl)c(Nc3ccccc3P(C)(C)=O)n2)c(OC)cc1N1CCC2(CC1)CN(C(=O)CN1CCC(c3cc4c(cc3F)c(N3CCC(=O)NC3=O)nn4C)C(F)(F)C1)C2 (centres unmarked) [TC-225],100 to 1000,10 to 100,10 to 100,100 to 1000,100 to 1000,100 to 1000,> 1000,576,16.7,13.5,289,961,432,1610,–,–,–,–,–,–
COc1cc(N2CCN(C(=O)CN3CCC(c4cc5c(cc4F)c(N4CCC(=O)NC4=O)nn5C)C(F)(F)C3)CC2)ccc1Nc1ncc(Cl)c(Nc2ccccc2P(C)(C)=O)n1 (centres unmarked) [TC-211],100 to 1000,10 to 100,10 to 100,100 to 1000,> 1000,100 to 1000,> 1000,–,–,–,–,–,–,–,–,–,–,–,–,–
COc1cc(N2CCN(C(=O)CN3CCC(c4cc5c(cc4F)c(N4CCC(=O)NC4=O)nn5C)C(F)(F)C3)CC2)c(Cl)cc1Nc1ncc(Br)c(Nc2ccccc2P(C)(C)=O)n1 (centres unmarked) [TC-138],100 to 1000,< 10,< 10,10 to 100,> 1000,100 to 1000,> 1000,–,–,–,–,–,–,–,–,–,–,–,–,–
CCc1cc(Nc2ncc(Cl)c(Nc3ccccc3P(C)(C)=O)n2)c(OC)cc1N1CC2(CCN(C(=O)CN3CCC(c4cc5c(cc4F)c(N4CCC(=O)NC4=O)nn5C)C(F)(F)C3)C2)C1 (centres unmarked) [TC-105],10 to 100,10 to 100,10 to 100,100 to 1000,100 to 1000,100 to 1000,100 to 1000,–,–,–,–,–,–,–,–,–,–,–,–,–
CCc1cc(Nc2ncc(Cl)c(Nc3ccccc3P(C)(C)=O)n2)c(OC)cc1N1CCN(CCN2CCC(c3cc4c(cc3F)c(N3CCC(=O)NC3=O)nn4C)C(F)(F)C2)CC1 (centres unmarked) [TC-099],–,–,–,–,–,–,–,–,–,–,–,–,–,–,7.86,9130,7840,649,7.79,2.67
"COc1cc(N2CCN(C(=O)CN3CCC(c4ccc5c(N6CCC(=O)NC6=O)nn(C)c5c4)CC3)CC2)ccc1Nc1ncc(Cl)c(Nc2ccccc2)n1 [DZL-2, reference compound]",100 to 1000,–,–,100 to 1000,100 to 1000,100 to 1000,–,265,–,–,220,289,612,–,–,–,–,–,–,–
